Source: ChEMBL document CHEMBL1129721, “Application of the Heck reaction in the synthesis of truncated naphthoic acid retinoids” (1996)
Calls of active or inactive are those of the source. The calls are words filed in the database; no cut-off is given here.

Assays:
[1] = biological target: T1, Retinoic acid receptor alpha (Homo sapiens) (UniProt P10276); assay: Transcriptional activation of retinoic acid RAR-alpha receptor; Not active
T1 sequence (whole entry): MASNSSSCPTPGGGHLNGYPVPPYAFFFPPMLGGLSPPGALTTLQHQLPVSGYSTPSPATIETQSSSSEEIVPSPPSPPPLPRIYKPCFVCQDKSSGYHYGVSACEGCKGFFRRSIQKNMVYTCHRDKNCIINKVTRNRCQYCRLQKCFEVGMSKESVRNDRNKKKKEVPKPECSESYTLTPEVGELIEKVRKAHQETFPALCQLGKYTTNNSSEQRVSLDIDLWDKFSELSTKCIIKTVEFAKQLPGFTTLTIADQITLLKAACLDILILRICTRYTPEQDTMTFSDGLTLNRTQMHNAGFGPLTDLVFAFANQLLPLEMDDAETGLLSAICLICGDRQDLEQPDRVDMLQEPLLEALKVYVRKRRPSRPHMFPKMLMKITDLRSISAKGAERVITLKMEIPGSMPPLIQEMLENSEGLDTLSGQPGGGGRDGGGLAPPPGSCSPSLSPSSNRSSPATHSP

[2] = biological target: T2, Retinoic acid receptor beta (Homo sapiens) (UniProt P10826); assay: Transcriptional activation of retinoic acid RAR-beta receptor; Not active
T2 sequence (whole entry): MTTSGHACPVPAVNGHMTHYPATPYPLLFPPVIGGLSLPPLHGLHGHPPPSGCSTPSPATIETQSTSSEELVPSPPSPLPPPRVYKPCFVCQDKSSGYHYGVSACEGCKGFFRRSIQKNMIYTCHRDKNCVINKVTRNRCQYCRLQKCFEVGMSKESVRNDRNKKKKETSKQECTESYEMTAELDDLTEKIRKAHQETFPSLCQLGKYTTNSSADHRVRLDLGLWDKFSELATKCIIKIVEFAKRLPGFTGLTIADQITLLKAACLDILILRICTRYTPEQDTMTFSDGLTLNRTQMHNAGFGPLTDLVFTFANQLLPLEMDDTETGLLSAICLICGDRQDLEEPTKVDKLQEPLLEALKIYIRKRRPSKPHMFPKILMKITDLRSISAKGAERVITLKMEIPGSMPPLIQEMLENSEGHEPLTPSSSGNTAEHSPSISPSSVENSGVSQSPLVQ

[3] = biological target: T3, Retinoic acid receptor gamma (Homo sapiens) (UniProt P13631); assay: Transcriptional activation of retinoic acid RAR-gamma receptor; Not active
T3 sequence (whole entry): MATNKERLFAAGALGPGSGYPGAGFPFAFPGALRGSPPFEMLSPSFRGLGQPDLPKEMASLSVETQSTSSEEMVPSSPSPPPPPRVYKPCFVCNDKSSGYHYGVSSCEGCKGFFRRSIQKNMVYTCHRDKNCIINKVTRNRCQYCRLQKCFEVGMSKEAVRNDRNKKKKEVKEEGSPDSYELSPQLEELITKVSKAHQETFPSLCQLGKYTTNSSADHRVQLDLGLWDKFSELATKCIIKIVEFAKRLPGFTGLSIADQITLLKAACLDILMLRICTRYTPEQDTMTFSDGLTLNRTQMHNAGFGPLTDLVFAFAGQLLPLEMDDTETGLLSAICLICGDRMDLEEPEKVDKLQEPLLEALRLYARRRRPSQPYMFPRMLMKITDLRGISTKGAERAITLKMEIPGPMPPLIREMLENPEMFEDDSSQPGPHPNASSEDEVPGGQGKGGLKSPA

Mus musculus = organism: Mus musculus; assay: Concentration that induces 30% utriculi reduction in rhino mouse.; format: functional

Structure (SMILES): CC1(C)CCC(C)(C)c2cc(C(=O)c3cccc(/C=C/C(=O)O)c3)ccc21
- EC50 ratio [1]: inactive
- EC50 ratio [2]: inactive

Structure (SMILES): CC1(C)CCC(C)(C)c2cc(C(O)c3ccc(/C=C/C(=O)O)cc3)ccc21 (stereo unspecified)
- EC50 ratio [1]: inactive
- EC50 ratio [3]: inactive
- EC50 ratio [2]: inactive
- ED30 (Mus musculus): 1740 µM

Structure (SMILES): CC1(C)CCC(C)(C)c2cc(C(=O)c3ccc(/C=C/C(=O)O)cc3)ccc21
- ED30 (Mus musculus): 54 µM

Structure (SMILES): CC1(C)CCC(C)(C)c2cc(C(=O)/C=C/c3ccc(C(=O)O)cc3)ccc21
- ED30 (Mus musculus): 3.4 µM

Structure (SMILES): CC1(C)CCC(C)(C)c2cc(C(O)c3ccc4cc(C(=O)O)ccc4c3)ccc21 (stereo unspecified)
- ED30 (Mus musculus): 223 µM

Structure (SMILES): Cc1cc(C(=O)c2ccc3c(c2)C(C)(C)CCC3(C)C)ccc1/C=C/C(=O)O
- EC50 ratio [1]: inactive
- ED30 (Mus musculus): 184 µM

Structure (SMILES): C/C(=C\c1ccc(C(=O)c2ccc3c(c2)C(C)(C)CCC3(C)C)cc1)C(=O)O
- ED30 (Mus musculus): 92 µM

Structure (SMILES): CC1(C)CCC(C)(C)c2cc(C(=O)c3ccc(/C=C\C(=O)O)cc3)ccc21
- EC50 ratio [1]: inactive

Structure (SMILES): CC1(C)CCC(C)(C)c2cc(C(O)/C=C/c3ccc(C(=O)O)cc3)ccc21 (stereo unspecified)
- ED30 (Mus musculus): 65 µM

Structure (SMILES): C/C(=C\C(=O)O)c1ccc(C(=O)c2ccc3c(c2)C(C)(C)CCC3(C)C)cc1
- EC50 ratio [1]: inactive

Structure (SMILES): CC1(C)CCC(C)(C)c2cc(C(=O)c3ccc4cc(C(=O)O)ccc4c3)ccc21
- ED30 (Mus musculus): 29 µM

Structure (SMILES): CC1(C)CCC(C)(C)c2cc(C(O)c3cccc(/C=C/C(=O)O)c3)ccc21 (stereo unspecified)
- EC50 ratio [1]: inactive
- EC50 ratio [3]: inactive
- EC50 ratio [2]: inactive

Structure (SMILES): CC1(C)CCC(C)(C)c2cc(C(=O)c3ccc(C#CC(=O)O)cc3)ccc21
- EC50 ratio [1]: inactive
- ED30 (Mus musculus): 1000 µM
